The source made the active and inactive calls. The rule behind the calls is not given here.
Key:
[1] = Resistance index, ratio of IC50 of human LoVo/DX cells to IC50 of human LoVo cells; type: functional
[2] = test system: LoVo; assay: Antiproliferative activity against human LoVo cells assessed as reduction in cell viability incubated for 120 hrs by MTT assay; type: functional, cell-based
[3] = Antiproliferative activity against human ALL5 cells assessed as reduction in cell viability incubated for 120 hrs by MTT assay; type: functional, cell-based; conditions: ALL5, 120 h
[4] = Selectivity index, ratio of IC50 of mouse BALB/3T3 cells to IC50 of human A549 cells
[5] = test system: A549; assay: Antiproliferative activity against human A549 cells assessed as reduction in cell viability incubated for 120 hrs by MTT assay; type: functional, cell-based; conditions: A549, 120 h
[6] = Antiproliferative activity against human LoVo/DX cells assessed as reduction in cell viability incubated for 120 hrs by MTT assay; type: functional, cell-based
[7] = Selectivity index, ratio of IC50 of mouse BALB/3T3 cells to IC50 of human MCF7 cells; type: toxicity; conditions: BALB/3T3 cells versus MCF7 cells, read-out: Ratio IC50
[8] = Selectivity index, ratio of IC50 of mouse BALB/3T3 cells to IC50 of human LoVo cells; type: toxicity; conditions: BALB/3T3 cells versus LoVo cells, read-out: Ratio IC50
[9] = Selectivity index, ratio of IC50 of mouse BALB/3T3 cells to IC50 of human LoVo/DX cells; type: toxicity; conditions: BALB/3T3 cells versus LoVo/DX cells, read-out: Ratio IC50
[10] = test system: MCF7; assay: Antiproliferative activity against human MCF7 cells assessed as reduction in cell viability incubated for 120 hrs by MTT assay; type: functional, cell-based; conditions: MCF7, 120 h
[11] = test system: BALB/3T3; assay: Antiproliferative activity against mouse BALB/3T3 cells assessed as reduction in cell viability incubated for 120 hrs by MTT assay; type: cell-based; conditions: BALB/3T3, 120 h
[12] = Selectivity index, ratio of IC50 of mouse BALB/3T3 cells to IC50 of human ALL5 cells
[13] = Cell cycle arrest in human ALL5 cells assessed as accumulation in subG1 phase at 5 times of antiproliferative IC50 incubated for 24 hrs by propidium iodide based flow cytometry (reference value: 10.5 %); type: functional
[14] = Cell cycle arrest in human ALL5 cells assessed as accumulation in G2 phase at 5 times of antiproliferative IC50 incubated for 48 hrs by propidium iodide based flow cytometry (reference value: 11.2 %); type: functional
[15] = Cell cycle arrest in human ALL5 cells assessed as accumulation in G1 phase at 5 times of antiproliferative IC50 incubated for 24 hrs by propidium iodide based flow cytometry (reference value: 68.1 %); type: functional
[16] = test system: MCF7; assay: Cell cycle arrest in human MCF7 cells assessed as accumulation in subG1 phase at 5 times of antiproliferative IC50 incubated for 24 hrs by propidium iodide based flow cytometry (reference value: 7.79 %); type: functional
[17] = Cell cycle arrest in human ALL5 cells assessed as accumulation in G2 phase at 5 times of antiproliferative IC50 incubated for 24 hrs by propidium iodide based flow cytometry (reference value: 10.6 %); type: functional
[18] = Cell cycle arrest in human ALL5 cells assessed as accumulation in S phase at 5 times of antiproliferative IC50 incubated for 72 hrs by propidium iodide based flow cytometry (reference value: 13.5 %); type: functional
[19] = test system: MCF7; assay: Cell cycle arrest in human MCF7 cells assessed as accumulation in G1 phase at 5 times of antiproliferative IC50 incubated for 48 hrs by propidium iodide based flow cytometry (reference value: 40.8 %); type: functional
[20] = test system: MCF7; assay: Cell cycle arrest in human MCF7 cells assessed as accumulation in G1 phase at 5 times of antiproliferative IC50 incubated for 72 hrs by propidium iodide based flow cytometry (reference value: 58 %); type: functional
[21] = test system: MCF7; assay: Cell cycle arrest in human MCF7 cells assessed as accumulation in G1 phase at 5 times of antiproliferative IC50 incubated for 24 hrs by propidium iodide based flow cytometry (reference value: 49.9 %); type: functional
[22] = Cell cycle arrest in human ALL5 cells assessed as accumulation in G1 phase at 5 times of antiproliferative IC50 incubated for 48 hrs by propidium iodide based flow cytometry (reference value: 67.4 %); type: functional
[23] = organism: Homo sapiens; assay: Induction of cell cycle arrest in human ALL5 cells assessed as increase in 4 N DNA at 5 times of antiproliferative IC50 incubated for 24 hrs by propidium iodide based flow cytometry; type: functional
[24] = test system: MCF7; assay: Cell cycle arrest in human MCF7 cells assessed as accumulation in subG1 phase at 5 times of antiproliferative IC50 incubated for 72 hrs by propidium iodide based flow cytometry (reference value: 3.59 %); type: functional
[25] = test system: MCF7; assay: Cell cycle arrest in human MCF7 cells assessed as accumulation in G2 phase at 5 times of antiproliferative IC50 incubated for 24 hrs by propidium iodide based flow cytometry (reference value: 22.4 %); type: functional
[26] = test system: MCF7; assay: Cell cycle arrest in human MCF7 cells assessed as accumulation in subG1 phase at 5 times of antiproliferative IC50 incubated for 48 hrs by propidium iodide based flow cytometry (reference value: 9.19 %); type: functional
[27] = Cell cycle arrest in human ALL5 cells assessed as accumulation in S phase at 5 times of antiproliferative IC50 incubated for 48 hrs by propidium iodide based flow cytometry (reference value: 10.3 %); type: functional
[28] = organism: Homo sapiens; assay: Induction of cell death in human ALL5 cells assessed as decrease in 4 N DNA at 5 times of antiproliferative IC50 incubated for 72 hrs by propidium iodide based flow cytometry; type: functional
[29] = test system: MCF7; assay: Cell cycle arrest in human MCF7 cells assessed as accumulation in S phase at 5 times of antiproliferative IC50 incubated for 24 hrs by propidium iodide based flow cytometry (reference value: 19.9 %); type: functional
[30] = Cell cycle arrest in human ALL5 cells assessed as accumulation in G2 phase at 5 times of antiproliferative IC50 incubated for 72 hrs by propidium iodide based flow cytometry (reference value: 11.3 %); type: functional
[31] = test system: MCF7; assay: Cell cycle arrest in human MCF7 cells assessed as accumulation in G2 phase at 5 times of antiproliferative IC50 incubated for 48 hrs by propidium iodide based flow cytometry (reference value: 16 %); type: functional
[32] = test system: MCF7; assay: Cell cycle arrest in human MCF7 cells assessed as accumulation in S phase at 5 times of antiproliferative IC50 incubated for 72 hrs by propidium iodide based flow cytometry (reference value: 19.8 %); type: functional
[33] = Cell cycle arrest in human ALL5 cells assessed as accumulation in S phase at 5 times of antiproliferative IC50 incubated for 24 hrs by propidium iodide based flow cytometry (reference value: […]); type: functional
[34] = Cell cycle arrest in human ALL5 cells assessed as accumulation in G1 phase at 5 times of antiproliferative IC50 incubated for 72 hrs by propidium iodide based flow cytometry (reference value: 59.7 %); type: functional
[35] = test system: MCF7; assay: Cell cycle arrest in human MCF7 cells assessed as accumulation in G2 phase at 5 times of antiproliferative IC50 incubated for 72 hrs by propidium iodide based flow cytometry (reference value: 18.6 %); type: functional
[36] = Cell cycle arrest in human ALL5 cells assessed as accumulation in subG1 phase at 5 times of antiproliferative IC50 incubated for 72 hrs by propidium iodide based flow cytometry (reference value: 15.5 %); type: functional
[37] = test system: MCF7; assay: Cell cycle arrest in human MCF7 cells assessed as accumulation in S phase at 5 times of antiproliferative IC50 incubated for 48 hrs by propidium iodide based flow cytometry (reference value: 34 %); type: functional
[38] = Cell cycle arrest in human ALL5 cells assessed as accumulation in subG1 phase at 5 times of antiproliferative IC50 incubated for 48 hrs by propidium iodide based flow cytometry (reference value: 11 %); type: functional
[39] = organism: Homo sapiens; assay: Induction of cell cycle arrest in human ALL5 cells assessed as increase in 4 N DNA at 5 times of antiproliferative IC50 incubated for 48 hrs by propidium iodide based flow cytometry; type: functional

IC50 [2] [nM] | IC50 [5] [nM] | IC50 [10] [nM] | Compound | Ratio IC50 [1] | IC50 [3] [nM] | Ratio IC50 [4] | IC50 [6] [nM] | selectivity ratio [7] | selectivity ratio [8] | selectivity ratio [9] | IC50 [11] [nM] | Ratio IC50 [12] | Activity [13] [%] | Activity [14] [%] | Activity [15] [%] | Activity [16] [%] | Activity [17] [%] | Activity [18] [%] | Activity [23] | Activity [28] | other results
482 | 881 | 957 | CCCCCCCCCC(=O)N[C@H]1CCc2c(Br)c(OC)c(OC)c(OC)c2-c2ccc(SC)c(=O)cc21 | 1.8 | 196 | 0.1 | 867 | 0.1 | 0.2 | 0.1 | 98.4 | 0.5 | – | – | – | – | – | – | – | – | –
12 | 53.4 | 48.9 | COc1c(Br)c2c(c(OC)c1OC)-c1ccc(SC)c(=O)cc1[C@@H](NC(=O)CCCCl)CC2 | 22.2 | 14 | 1.2 | 266 | 1.3 | 5.3 | 0.2 | 64.1 | 4.6 | – | – | – | – | – | – | Active | Active | Activity [39]: Active
53.8 | 99.1 | 97.3 | CCN(CC)C(=O)N[C@H]1CCc2c(Br)c(OC)c(OC)c(OC)c2-c2ccc(SC)c(=O)cc21 | 11.6 | 55.3 | 0.8 | 621 | 0.8 | 1.5 | 0.1 | 80.4 | 1.5 | – | – | – | – | – | – | – | – | –

The next lines start with the compound.

Compound | IC50 [2] [nM] | IC50 [5] [nM] | IC50 [10] [nM] | Ratio IC50 [1] | IC50 [3] [nM] | Ratio IC50 [4] | IC50 [6] [nM] | selectivity ratio [7] | selectivity ratio [8] | selectivity ratio [9] | IC50 [11] [nM] | Ratio IC50 [12] | Activity [13] [%] | Activity [14] [%] | Activity [15] [%] | Activity [16] [%] | Activity [17] [%] | Activity [18] [%] | Activity [23] | Activity [28] | other results
COc1c(Br)c2c(c(OC)c1OC)-c1ccc(SC)c(=O)cc1[C@@H](NC(=O)c1ccccc1)CC2 | 6.6 | 9.6 | 11.4 | 7.3 | 5.8 | 1.8 | 47.9 | 1.5 | 2.6 | 0.4 | 17.4 | 3 | 16.5 | 25.4 | 52 | 6.17 | 16.9 | 19.7 | Active | Active | Activity [19]: 14.3%; Activity [20]: 13%; Activity [21]: 11%; Activity [22]: 33.8%; Activity [24]: 15.6%; Activity [25]: 75%; Activity [26]: 10%; Activity [27]: 16%; Activity [29]: 7.85%; Activity [30]: 7.51%; Activity [31]: 68.3%; Activity [32]: 9.81%; Activity [33]: 14.7%; Activity [34]: 22.1%; Activity [35]: 61.6%; Activity [36]: 50.6%; Activity [37]: 7.39%; Activity [38]: 24.7%
COc1c(Br)c2c(c(OC)c1OC)-c1ccc(SC)c(=O)cc1[C@@H](NC(C)=O)CC2 | 13.6 | 10.1 | 14.8 | 9.6 | 5.4 | 10.2 | 135 | 7 | 7.6 | 0.8 | 103 | 19.1 | 14.3 | 16.6 | 53.2 | 7.93 | 17.7 | 24.2 | Active | Active | Activity [19]: 14.6%; Activity [20]: 15.5%; Activity [21]: 13%; Activity [22]: 33.4%; Activity [24]: 13.1%; Activity [25]: 72.4%; Activity [26]: 12%; Activity [27]: 19.4%; Activity [29]: 6.62%; Activity [30]: 9.83%; Activity [31]: 66%; Activity [32]: 6.88%; Activity [33]: 14.8%; Activity [34]: 28.8%; Activity [35]: 64.5%; Activity [36]: 37.2%; Activity [37]: 7.31%; Activity [38]: 30.5%
COc1c(Br)c2c(c(OC)c1OC)-c1ccc(OC)c(=O)cc1[C@@H](NC(C)=O)CC2 | 83.6 | 104 | 26.6 | 18.7 | 5.9 | 1.4 | 1550 | 5.3 | 1.7 | 0.1 | 142 | 24.1 | 17.1 | 18.6 | 51.2 | 7.37 | 16.9 | 22.2 | – | Active | Activity [19]: 12.5%; Activity [20]: 13.2%; Activity [21]: 9.79%; Activity [22]: 35%; Activity [24]: 16.4%; Activity [25]: 74.9%; Activity [26]: 12.1%; Activity [27]: 20%; Activity [29]: 7.97%; Activity [30]: 11.2%; Activity [31]: 60.8%; Activity [32]: 14.3%; Activity [33]: 14.8%; Activity [34]: 26.9%; Activity [35]: 56.1%; Activity [36]: 39.7%; Activity [37]: 14.6%; Activity [38]: 26.4%; Activity [39]: Active
COc1c(Br)c2c(c(OC)c1OC)-c1ccc(SC)c(=O)cc1[C@@H](N)CC2 | 125 | 115 | 178 | 5.6 | 91.4 | 11 | 700 | 7.1 | 10.1 | 1.8 | 1260 | 13.8 | – | – | – | – | – | – | Active | Active | Activity [39]: Active

Source: ChEMBL document CHEMBL4359931, “Synthesis, biological evaluation and molecular docking studies of new amides of 4-bromothiocolchicine as anticancer agents” (Bioorg Med Chem, 2019)
